Data on ten compounds can be found in PubChem BioAssay (NCI).

Where “and” joins values, the source holds several entries; their conditions need not be identical. Equal entries are not always repeated.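 Each compound was tested at five concentrations against cells in 96-well plates for 48 hours. GI50: concentration for 50% inhibition of growth. TGI denotes the concentration required for complete inhibition of growth.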

Test systems include HL-60(TB) leukemia; IGROV1 ovarian; K-562 leukemia; MALME-3M melanoma; MDA-MB-435; SF-539 CNS; SK-MEL-2 melanoma; SK-MEL-5 melanoma.
Common to all, as to test: NCI-60 cell line screen, 48 h

For `CC1=C(CCCOC(=O)[C@H](N)CC(C)C)C2=C(C)C3(CC3)[C@@](C)(O)C(=O)C2=C1`, the GI50 was 2.01 µM in the test on HL-60(TB) leukemia; 0.471 µM in the test with IGROV1 ovarian; 34.3 µM in the test with K-562 leukemia; 1.44 µM in the test on MALME-3M melanoma; 3.28 µM with MDA-MB-435; 1.61 µM with SF-539 CNS. Further, the values for the GI50 in the test with SK-MEL-2 melanoma and in the test on SK-MEL-5 melanoma were 1.91 µM and 1.44 µM, respectively. Further, the TGI is 13.2 µM with HL-60(TB) leukemia; 6.19 µM in the test with IGROV1 ovarian; more than 100 µM in the test with K-562 leukemia; 3.31 µM in the test on MALME-3M melanoma; 27.6 µM in the test on MDA-MB-435; 4.25 µM in the test with SF-539 CNS. Further, the TGI with SK-MEL-2 melanoma was found to be 3.89 µM; in the test with SK-MEL-5 melanoma it was 2.83 µM.

For `CN(C)CCNC(=O)c1cc2c3cc(Cl)ccc3[nH]c2c2ncccc12`, the GI50 with HL-60(TB) leukemia was 1.97 µM; in the test on IGROV1 ovarian, 1.52 µM; in the test with K-562 leukemia it was 1.68 µM; in the test with MALME-3M melanoma it was 1.89 µM; in the test on MDA-MB-435, 1.95 µM; in the test on SF-539 CNS, 1.57 µM. For the same compound, the GI50 with SK-MEL-2 melanoma is 4.2 µM; with SK-MEL-5 melanoma, 1.34 µM. Further, the TGI with HL-60(TB) leukemia amounted to 4.02 µM; with IGROV1 ovarian, 4.34 µM; in the test with K-562 leukemia, 3.98 µM; in the test with MALME-3M melanoma, 3.94 µM; in the test on MDA-MB-435, 4.22 µM; in the test with SF-539 CNS, 3.14 µM. Further, the TGI in the test with SK-MEL-2 melanoma was 20.1 µM; in the test with SK-MEL-5 melanoma it was 2.69 µM.

For the compound `Cn1ncnc1[C@@H]1c2n[nH]c(=O)c3cc(F)cc(c23)N[C@H]1c1ccc(F)cc1`, the GI50 in the test on HL-60(TB) leukemia, in the test with IGROV1 ovarian, with K-562 leukemia, with MALME-3M melanoma, in the test with MDA-MB-435 and in the test with SF-539 CNS was more than 100 µM throughout. The GI50 in the test with SK-MEL-2 melanoma and with SK-MEL-5 melanoma was more than 100 µM throughout. Moreover, the TGI with HL-60(TB) leukemia, in the test on IGROV1 ovarian, with K-562 leukemia, in the test on MALME-3M melanoma, with MDA-MB-435 and in the test with SF-539 CNS was more than 100 µM throughout. In addition, the TGI in the test on SK-MEL-2 melanoma and with SK-MEL-5 melanoma was more than 100 µM in each case.

Take `Cc1c(Cl)cccc1C(=O)Nc1nc2c(s1)CN(C(=O)Nc1cccc(C(F)(F)F)c1)CC2`: the GI50 in the test on HL-60(TB) leukemia is 0.149 µM; in the test with IGROV1 ovarian, 0.29 µM; with K-562 leukemia it was 0.131 µM; in the test on MALME-3M melanoma, 0.356 µM; in the test on SF-539 CNS, 0.155 µM; in the test with SK-MEL-2 melanoma, 0.283 µM. For the same compound, the GI50 with SK-MEL-5 melanoma was 0.182 µM. The TGI in the test on IGROV1 ovarian is more than 50 µM; in the test with K-562 leukemia, more than 50 µM; in the test with MALME-3M melanoma, more than 50 µM; in the test with SF-539 CNS it was 0.885 µM; in the test on SK-MEL-2 melanoma, more than 50 µM; in the test on SK-MEL-5 melanoma, 3.75 µM.

Regarding `O=C(NCc1cn(Cc2cccc(Oc3ccccc3)c2)nn1)c1cccnc1Nc1ccc(F)cc1`, the GI50 was more than 100 µM with HL-60(TB) leukemia; 30.7 µM with IGROV1 ovarian; more than 100 µM in the test with K-562 leukemia; 15.1 µM with MALME-3M melanoma; 15.1 µM in the test on SF-539 CNS; 34.2 µM with SK-MEL-2 melanoma. The GI50 in the test with SK-MEL-5 melanoma was 4.48 µM. Besides, the TGI in the test on HL-60(TB) leukemia, in the test with IGROV1 ovarian, in the test with K-562 leukemia, with MALME-3M melanoma, with SF-539 CNS and in the test with SK-MEL-2 melanoma was more than 100 µM in each case. For the same compound, the TGI in the test on SK-MEL-5 melanoma stood at 38.8 µM.

On to `CC(C)(C)CC(C)(C)c1ccc(OCCO)cc1`, for which the GI50 in the test with HL-60(TB) leukemia was 1.81 µg/mL; in the test on K-562 leukemia, 0.887 µg/mL; in the test with MDA-MB-435 it was 6.26 µg/mL; in the test on SF-539 CNS it was 8.77 µg/mL; in the test on SK-MEL-2 melanoma, 8.07 µg/mL; in the test with SK-MEL-5 melanoma it was 0.89 µg/mL. Moreover, the TGI is 31.6 µg/mL with HL-60(TB) leukemia; more than 75 µg/mL in the test on K-562 leukemia; 18.6 µg/mL in the test with MDA-MB-435; 19.5 µg/mL in the test with SF-539 CNS; 18.7 µg/mL in the test with SK-MEL-2 melanoma; 7.63 µg/mL in the test on SK-MEL-5 melanoma.

With `O=c1nc2n(-c3cccc(Cl)c3)c3ccc([N+](=O)[O-])cc3cc-2c(=O)[nH]1`, the GI50 is 1.29 µM in the test on HL-60(TB) leukemia; 17.4 µM in the test with IGROV1 ovarian; 17.1 µM with K-562 leukemia; 4.06 µM in the test on MDA-MB-435; 4.4 µM in the test with SF-539 CNS; more than 25 µM with SK-MEL-2 melanoma. Also, the GI50 in the test on SK-MEL-5 melanoma is 5.36 µM. The TGI in the test on HL-60(TB) leukemia is more than 25 µM; with IGROV1 ovarian, more than 25 µM; in the test with K-562 leukemia, more than 25 µM; in the test with MDA-MB-435 it was 8.09 µM; in the test with SF-539 CNS, 11.8 µM; with SK-MEL-2 melanoma, more than 25 µM. Also, the TGI with SK-MEL-5 melanoma was 12.8 µM.

On to `COc1ccc(C2=NN(C(N)=S)C(c3ccc4c(c3)OCO4)C2)cc1` (configuration not stated), for which the GI50 in the test with IGROV1 ovarian is 2.42 µM; in the test on K-562 leukemia, 2.89 µM; in the test with MALME-3M melanoma, 3.62 µM; with MDA-MB-435 it was 2.39 µM; with SF-539 CNS, 2.12 µM; in the test on SK-MEL-2 melanoma, 3.12 µM. In addition, in the test on SK-MEL-5 melanoma, the GI50 is 2.47 µM. Besides, the TGI with IGROV1 ovarian was 6.8 µM; with K-562 leukemia it was more than 100 µM; in the test with MALME-3M melanoma, 43.9 µM; with MDA-MB-435 it was 7.26 µM; in the test with SF-539 CNS it was 5.21 µM; in the test on SK-MEL-2 melanoma it was 38.9 µM. Further, the TGI in the test with SK-MEL-5 melanoma stood at 8.41 µM.

Turning to `COc1ccc(-c2csc3c2-n2cccc2C3=O)cc1`, the GI50 in the test on HL-60(TB) leukemia was 0.00416 µM; in the test on IGROV1 ovarian, 0.0229 µM; with K-562 leukemia it was 0.00275 µM; in the test with SK-MEL-2 melanoma, 0.0111 µM; in the test with SK-MEL-5 melanoma it was 0.0236 µM. Moreover, the TGI was 0.0185 µM and 0.0984 µM in the test on HL-60(TB) leukemia; more than 88.5 µM in the test with IGROV1 ovarian; more than 100 µM with MALME-3M melanoma; 2.39 µM in the test with SF-539 CNS; more than 79.9 µM in the test on SK-MEL-2 melanoma.

As for `CC(=O)/C(=C\c1ccc(Cl)cc1)c1ccccc1`, the GI50 in the test on HL-60(TB) leukemia was 0.0307 µM; in the test on IGROV1 ovarian it was 0.344 µM; in the test with K-562 leukemia, 0.0501 µM; with MALME-3M melanoma, 43.2 µM; with SK-MEL-2 melanoma, 0.141 µM; in the test with SK-MEL-5 melanoma, 0.0818 µM. Moreover, the TGI in the test on HL-60(TB) leukemia was 0.117 µM; with IGROV1 ovarian, more than 100 µM; with K-562 leukemia, more than 100 µM; in the test with MALME-3M melanoma it was more than 100 µM; in the test with SK-MEL-2 melanoma it was more than 100 µM; in the test with SK-MEL-5 melanoma, 1.14 µM.
